Results on 2 molecules are retold here after patent US20230102192A1, “THERAPIES FOR THE TREATMENT OF DISEASES AND DISORDERS ASSOCIATED WITH ABNORMAL EXPRESSION OF A NEURAL-ASSOCIATED GENE” (The Regents of the University of California, priority 2020, published 2023).

Entries after “also recorded” stand apart in the source; their conditions may differ.

Type in all cases: cell-based, human
One assay relates to control neurons. Description: Effect of treatment on control neurons. The protocol: (§1) Pharmacologic treatment. One-month old cortical organoids were treated for 1 mo with either Nefiracetam (10 μM) or PHA 543613 (10 μM) during media changes.
(§2) Pharmacologic screening identifies two compounds that specifically reverse MECP2-KO phenotypes. 14 commercially available pharmacologic compounds with mechanisms of action that counteract the synapse and neurotransmitter pathologies were selected and which are identified in FIG. 5B. […] MECP2-KO and control neurons were treated with each of the 14 compounds and employed a tiered series of assays to identify those that could selectively rescue MECP2-KO pathology without affecting controls. […] The capacity of these compounds to increase pre and post co-localized synaptic puncta in MECP2-KO neurons were evaluated, again eliminating the drugs that affected control neurons (see FIG. 5F-G, and FIG. 6C-D).

Assay [1] concerns MECP2-KO cortical organoids. The experiment in a line: Nuclei size in cortical organoids. The settings on record: vs KO untreated.
Assay [2] deals with MECP2-KO neurons. The experiment in a line: Neuronal morphology (neurites, spine density). To be noted: vs KO untreated. The protocol:
Spine density and morphology/stability/motility. pHIV7/Syn-EGFP lentivirus was prepared by transfecting HEK cells using the transfection agent polyethyleneimine (Polysciences, Inc., Warrington, Pa., USA), pSyn-EGFP and packaging plasmids pMDL, Rev RSV and VSVG. During cortical neuron differentiation, on day 40, control and MECP2dup neurons were transduced with pHIV7/syn-EGFP. Post transduction, neurons were further differentiated until day 70 and were fixed with 4% PFA and further processed for imaging. Confocal images were obtained using a confocal laser-scanning microscope (Nikon), 60× oil objective, with a sequential acquisition setting at 4096×4096 pixels resolution. Each image is a Z-series projection of ˜7 to 15 images, averaged 2 times and taken at 0.5 μm depth intervals. GFP-labeled differentiated neurons were chosen randomly for quantification. Quantitative analysis was performed in a blinded manner. Dendrites on primary branches were selected randomly and for each neuron two to three segments of 10 μm were analyzed. Morphometric measurements were performed manually using the ImageJ software (1.44p version). Each spine on the dendrites was manually traced. The length and head width of each spine was automatically measured and used to categorize the spines. Specifically, spines where defined as thin and filopodia (immature) or mushroom and stubby (mature) according to the criteria defined previously. Twenty-two (51 segments of 10 μm) and 18 (42 segments of 10 μm) neurons were analyzed for the control and MECP2dup neurons, respectively; two clones for each condition.
Analysis of neuronal morphology. PSC-derived neuronal morphometry was performed as described in Chailangkarn et al. Briefly, neurons with branching neurites featuring dendritic spine-like protrusions were selected, and neuronal morphology was quantified using Neurolucida v9 (MBF Bioscience, Williston, Vt.) via Nikon Eclipse E600 microscope (40× oil). Measurements were as follows: Spine number: number of spines protruding from neurites; soma size: soma area on cross-section; spine length: summed length of all spines per neuron. The rater traced the same neuron after a period of time to ensure intra-rater reliability.

In assay [3] the test system is MECP2-KO neurons. The experiment in a line: Co-localized pre/postsynaptic puncta quantification in neurons. To be noted: one-month old MECP2-KO neurons treated two weeks. On the procedure:
as §1
Synaptic puncta quantification. Co-localized pre and postsynaptic puncta (Vglut and Homer1 immunostained) along MAP2-positive processes were quantified. Primary antibodies (see above) incubated 2 h, secondary antibodies incubated 1 h, and coverslips were mounted. Slides were analyzed under fluorescence microscopy.
as §2

Assay [4] has as its system MECP2-KO neurons. The experiment in a line: Multi-electrode array (MEA) of neurons. On the procedure:
as §1
Multi-electrode array (MEA) analysis. MEA analyses of neurons and cortical organoids were performed as described in Nageshappa et al. (Mol. Psychiatry 21:178-188 (2016)). Briefly, 3D neurosphere cultures of NPC derivation were plated on dual-chamber MEA; spontaneous spike activity was evaluated with the MED64 System (Panasonic). Glutamatergic (AP5, NBQX), GABAergic (Gabazine), and gap channel (Mefloquine) antagonism were used to check neuronal activity. After measurement, neurons were immunostained to check morphology and density. Recorded spikes were analyzed with the software Neuroexplorer (Nex Technologies, Madison, Ala., USA). For cortical organoids, 1-month organoids were plated on MEA plates and recordings were collected with a Maestro MEA system and AxIS Software Spontaneous Neural Configuration (Axion Biosystems, Atlanta, Ga., USA) using a customized script. The plate rested in the machine for three minutes followed by four minutes of recording. Axion Biosystems' Neural Metrics Tool classified electrodes with at least 5 spikes/min as active. […] The synchrony index was calculated using a 20 ms cross-correlogram synchrony window was used to determine the synchrony index. […]

Turning to `Cc1cccc(C)c1NC(=O)CN1CCCC1=O` [Nefiracetam, nefiracetam], the effect on controls result in the assay with control neurons is recorded as “leaving controls unaffected”. In assay [1], the “nuclei size in cortical organoids” value is reported as “did not rescue”. In the assay on MECP2-KO neurons [2], the number of neurites entry is recorded as “did not increase; also recorded: did not rescue” and the total neurite length result is on record as “did not increase; also recorded: did not rescue”. Further, in the assay on MECP2-KO neurons [3], the “synaptogenesis / co-localized synaptic puncta” value was “specifically increased synaptogenesis”. Besides, the “MEA spike frequency / network spiking activity” value with MECP2-KO neurons [4] is “increases network spiking activity; also recorded: restore”.

For `O=C(N[C@H]1CN2CCC1CC2)c1cc2ccoc2cn1` [PHA 543613, N-[(3R)-1-azabicyclo[2.2.2]oct-3-yl]furo[2,3-c]pyridine-5-carboxamide], the effect on controls entry in the assay on control neurons is listed as “leaving controls unaffected”. Further, the “nuclei size in cortical organoids” value in assay [1] is “did not rescue”. In addition, in the assay on MECP2-KO neurons [2], the number of neurites result is “did not increase; also recorded: did not rescue” and the total neurite length result is recorded as “did not increase; also recorded: did not rescue”. Further, in the assay on MECP2-KO neurons [3], the “synaptogenesis / co-localized synaptic puncta” value is “increases synaptic puncta”. The “MEA spike frequency / network spiking activity” value in the assay on MECP2-KO neurons [4] is “increases network spiking activity; also recorded: restore”.
